Test results taken from ChEMBL document CHEMBL5465560, “Selectivity Literature for EUbOPEN Chemogenomic Library” (2024).
Blank lines part the entries; values can stand above or below the molecule they belong to.

Legend:
[1] = target: DNA (cytosine-5)-methyltransferase 3B (Homo sapiens) (UniProt Q9UBC3); experiment: Selectivity interaction (Methyltransferase screen (radiometric assays, panel of 8 PRMTs, 21 protein lysine methyltransferases, 3 DNA methyltransferases, and one RNA methyltransferase)) EUB0000271b DNMT3B
[2] = target: T1, Serine/threonine-protein kinase RIO3 (Homo sapiens) (UniProt O14730); experiment: Selectivity interaction (KinomeScan (DiscoverX)) EUB0000655a RIOK3; settings: at 10 µM
T1 sequence (whole entry): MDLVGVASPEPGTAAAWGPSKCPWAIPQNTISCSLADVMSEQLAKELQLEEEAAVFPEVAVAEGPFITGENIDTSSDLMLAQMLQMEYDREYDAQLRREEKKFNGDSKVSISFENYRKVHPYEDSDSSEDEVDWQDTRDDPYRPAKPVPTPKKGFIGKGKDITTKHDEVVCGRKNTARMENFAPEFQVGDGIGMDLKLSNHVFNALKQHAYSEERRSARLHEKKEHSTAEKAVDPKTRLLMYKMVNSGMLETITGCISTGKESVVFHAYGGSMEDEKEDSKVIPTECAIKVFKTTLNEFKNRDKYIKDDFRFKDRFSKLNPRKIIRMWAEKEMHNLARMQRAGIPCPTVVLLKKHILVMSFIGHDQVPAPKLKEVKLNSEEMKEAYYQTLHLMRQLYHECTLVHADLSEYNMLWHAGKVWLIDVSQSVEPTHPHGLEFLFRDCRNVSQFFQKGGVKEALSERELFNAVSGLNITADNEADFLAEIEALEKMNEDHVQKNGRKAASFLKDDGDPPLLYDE

[3] = target: Ribosomal protein S6 kinase alpha-1 (Homo sapiens, UniProt Q15418); experiment: Selectivity interaction (KinomeScan (DiscoverX)) EUB0001079a RPS6KA1; settings: at 1 µM
Sequence of Ribosomal protein S6 kinase alpha-1 (Q15418 whole entry): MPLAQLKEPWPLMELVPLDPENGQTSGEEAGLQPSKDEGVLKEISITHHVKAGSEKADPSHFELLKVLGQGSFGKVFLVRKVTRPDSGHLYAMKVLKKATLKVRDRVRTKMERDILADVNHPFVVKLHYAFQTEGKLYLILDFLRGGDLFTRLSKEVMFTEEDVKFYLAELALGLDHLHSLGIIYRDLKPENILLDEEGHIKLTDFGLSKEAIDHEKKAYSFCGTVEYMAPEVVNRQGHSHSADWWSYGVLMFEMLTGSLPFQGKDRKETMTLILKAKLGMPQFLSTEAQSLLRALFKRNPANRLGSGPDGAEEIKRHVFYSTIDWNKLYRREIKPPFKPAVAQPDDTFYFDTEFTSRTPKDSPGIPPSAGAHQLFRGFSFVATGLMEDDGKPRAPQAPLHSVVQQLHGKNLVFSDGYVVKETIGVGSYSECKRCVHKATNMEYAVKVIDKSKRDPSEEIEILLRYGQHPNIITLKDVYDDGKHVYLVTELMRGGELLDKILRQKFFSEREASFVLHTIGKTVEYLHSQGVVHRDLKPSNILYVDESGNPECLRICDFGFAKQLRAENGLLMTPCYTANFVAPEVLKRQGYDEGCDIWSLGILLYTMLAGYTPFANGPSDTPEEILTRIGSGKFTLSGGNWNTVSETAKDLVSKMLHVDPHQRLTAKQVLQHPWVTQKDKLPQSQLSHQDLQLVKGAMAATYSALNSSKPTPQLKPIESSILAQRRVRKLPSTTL

[4] = target: Mitogen-activated protein kinase kinase kinase kinase 5 (Homo sapiens) (UniProt Q9Y4K4); experiment: Selectivity interaction (ActivX KiNativ screen (ex vivo kinase selectivity in human PBMCs)) EUB0001619a MAP4K5; format: cell-based; settings: PBMC, at 1 µM
Sequence of Mitogen-activated protein kinase kinase kinase kinase 5 (Homo sapiens) (Q9Y4K4 whole entry, looked up): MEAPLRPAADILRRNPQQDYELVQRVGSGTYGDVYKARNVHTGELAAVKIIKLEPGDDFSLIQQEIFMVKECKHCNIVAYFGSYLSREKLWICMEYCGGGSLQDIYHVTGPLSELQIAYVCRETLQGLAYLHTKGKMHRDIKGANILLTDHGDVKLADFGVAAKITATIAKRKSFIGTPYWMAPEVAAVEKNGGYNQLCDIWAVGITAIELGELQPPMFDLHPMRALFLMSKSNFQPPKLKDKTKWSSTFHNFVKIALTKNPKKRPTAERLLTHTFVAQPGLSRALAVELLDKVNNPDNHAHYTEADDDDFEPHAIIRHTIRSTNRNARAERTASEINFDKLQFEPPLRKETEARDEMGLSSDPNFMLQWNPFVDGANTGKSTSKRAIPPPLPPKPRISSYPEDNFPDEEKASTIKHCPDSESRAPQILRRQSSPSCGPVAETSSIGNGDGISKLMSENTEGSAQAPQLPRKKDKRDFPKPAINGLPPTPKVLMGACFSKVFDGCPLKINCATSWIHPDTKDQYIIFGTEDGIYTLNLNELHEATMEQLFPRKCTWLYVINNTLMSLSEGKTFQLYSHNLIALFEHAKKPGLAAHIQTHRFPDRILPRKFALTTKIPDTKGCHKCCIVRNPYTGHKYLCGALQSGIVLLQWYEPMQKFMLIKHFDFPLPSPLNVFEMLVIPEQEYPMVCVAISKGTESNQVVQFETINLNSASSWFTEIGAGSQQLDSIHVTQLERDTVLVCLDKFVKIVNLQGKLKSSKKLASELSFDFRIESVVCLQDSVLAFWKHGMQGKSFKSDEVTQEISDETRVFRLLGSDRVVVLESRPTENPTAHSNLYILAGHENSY

[5] = target: T2, Dual specificity protein kinase TTK (Homo sapiens) (UniProt P33981); experiment: Selectivity interaction (KinomeScan (DiscoverX)) EUB0000595a TTK; settings: at 10 µM
T2 sequence (whole entry): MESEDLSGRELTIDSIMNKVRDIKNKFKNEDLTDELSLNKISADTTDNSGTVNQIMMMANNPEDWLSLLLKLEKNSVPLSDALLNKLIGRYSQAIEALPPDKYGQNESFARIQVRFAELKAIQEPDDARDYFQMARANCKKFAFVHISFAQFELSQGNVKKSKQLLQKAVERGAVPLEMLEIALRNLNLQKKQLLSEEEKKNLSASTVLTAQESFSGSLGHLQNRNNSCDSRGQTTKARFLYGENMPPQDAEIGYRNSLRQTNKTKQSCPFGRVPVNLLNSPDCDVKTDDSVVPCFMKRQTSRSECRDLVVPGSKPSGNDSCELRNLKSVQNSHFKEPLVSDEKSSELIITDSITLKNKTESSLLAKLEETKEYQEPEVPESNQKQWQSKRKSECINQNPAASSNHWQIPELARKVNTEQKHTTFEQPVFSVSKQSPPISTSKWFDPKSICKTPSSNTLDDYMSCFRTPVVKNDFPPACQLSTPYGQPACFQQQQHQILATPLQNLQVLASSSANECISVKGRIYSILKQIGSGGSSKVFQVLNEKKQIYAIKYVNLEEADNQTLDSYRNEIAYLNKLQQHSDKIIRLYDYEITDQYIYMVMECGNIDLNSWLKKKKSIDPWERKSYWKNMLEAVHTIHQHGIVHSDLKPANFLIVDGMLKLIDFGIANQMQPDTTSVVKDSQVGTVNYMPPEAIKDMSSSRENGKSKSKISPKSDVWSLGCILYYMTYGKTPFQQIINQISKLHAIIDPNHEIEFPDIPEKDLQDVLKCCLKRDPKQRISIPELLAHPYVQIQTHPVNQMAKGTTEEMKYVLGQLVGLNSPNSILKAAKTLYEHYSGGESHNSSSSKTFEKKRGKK

[6] = target: Cyclin-dependent kinase 8 (Homo sapiens, UniProt P49336); settings: at 10 µM
Sequence of Cyclin-dependent kinase 8 (P49336 whole entry): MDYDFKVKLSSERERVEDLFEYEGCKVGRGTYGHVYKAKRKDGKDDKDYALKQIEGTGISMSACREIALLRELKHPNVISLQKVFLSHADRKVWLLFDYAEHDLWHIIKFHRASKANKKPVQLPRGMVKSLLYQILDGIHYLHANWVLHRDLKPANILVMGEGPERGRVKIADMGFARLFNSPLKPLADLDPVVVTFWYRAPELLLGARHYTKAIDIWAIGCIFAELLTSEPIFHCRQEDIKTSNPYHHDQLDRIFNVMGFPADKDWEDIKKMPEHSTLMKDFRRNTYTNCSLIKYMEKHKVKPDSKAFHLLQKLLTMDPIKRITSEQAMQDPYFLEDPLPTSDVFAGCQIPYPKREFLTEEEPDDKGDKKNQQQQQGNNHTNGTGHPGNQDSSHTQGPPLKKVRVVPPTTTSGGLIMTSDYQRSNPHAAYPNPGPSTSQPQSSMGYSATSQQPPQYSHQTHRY

[7] = target: Serine/threonine-protein kinase RIO2 (Homo sapiens) (UniProt Q9BVS4); settings: at 10 µM
Sequence of Serine/threonine-protein kinase RIO2 (Homo sapiens) (Q9BVS4 whole entry, looked up): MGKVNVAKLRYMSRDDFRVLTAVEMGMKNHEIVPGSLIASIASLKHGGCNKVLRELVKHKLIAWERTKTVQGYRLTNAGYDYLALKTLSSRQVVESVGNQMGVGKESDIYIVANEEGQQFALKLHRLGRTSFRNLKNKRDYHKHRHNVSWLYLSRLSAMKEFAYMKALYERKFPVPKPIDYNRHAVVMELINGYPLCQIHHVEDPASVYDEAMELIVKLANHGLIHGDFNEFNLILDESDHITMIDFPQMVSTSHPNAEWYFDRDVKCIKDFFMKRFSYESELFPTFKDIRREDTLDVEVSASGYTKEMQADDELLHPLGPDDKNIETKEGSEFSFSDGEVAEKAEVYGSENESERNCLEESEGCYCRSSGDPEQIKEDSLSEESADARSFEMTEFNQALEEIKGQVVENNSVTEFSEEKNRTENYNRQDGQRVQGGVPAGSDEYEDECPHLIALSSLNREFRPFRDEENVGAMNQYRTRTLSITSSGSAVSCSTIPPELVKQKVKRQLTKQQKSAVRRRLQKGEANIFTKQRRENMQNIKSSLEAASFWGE

[8] = target: CDK9/cyclin T1 (Homo sapiens) (UniProt O60563+P50750); experiment: Selectivity interaction (Kinase panel (Invitrogen)) EUB0000639a CDK9; format: protein-complex assay; settings: at 200 nM
[9] = target: T3, Serine/threonine-protein kinase ULK3 (Homo sapiens) (UniProt Q6PHR2); experiment: Selectivity interaction (KinomeScan (DiscoverX)) EUB0000229b ULK3; settings: at 10 µM
T3 sequence (whole entry): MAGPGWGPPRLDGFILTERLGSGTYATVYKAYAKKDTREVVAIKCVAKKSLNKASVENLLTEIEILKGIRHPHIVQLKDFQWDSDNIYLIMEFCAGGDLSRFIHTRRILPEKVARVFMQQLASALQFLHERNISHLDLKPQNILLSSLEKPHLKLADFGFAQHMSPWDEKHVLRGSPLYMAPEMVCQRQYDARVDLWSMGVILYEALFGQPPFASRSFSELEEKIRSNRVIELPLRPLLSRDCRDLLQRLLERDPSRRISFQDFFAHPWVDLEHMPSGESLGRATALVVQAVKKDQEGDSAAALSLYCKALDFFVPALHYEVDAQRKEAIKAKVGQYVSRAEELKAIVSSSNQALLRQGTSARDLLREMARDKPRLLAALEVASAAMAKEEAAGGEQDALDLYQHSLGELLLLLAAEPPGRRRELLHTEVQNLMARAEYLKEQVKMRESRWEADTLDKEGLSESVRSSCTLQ

SMILES: Cc1cc(C)cc([C@@H]2c3cc(C)ccc3NC(=O)CN2C(=O)c2ccc(Br)s2)c1
% of activity ([1]; at 1 µM): 103%
% of activity ([1]; at 10 µM): 98.3%

SMILES: CN(C)CCOc1ccc(-c2nc(-c3ccncc3)c(-c3ccc4c(c3)CC/C4=N\O)[nH]2)cc1
% of control [2]: 82%

SMILES: Nc1cnc(N2CCc3cc(S(=O)(=O)Nc4c(F)cc(Cl)cc4F)cc(N4CCCC4=O)c32)nc1 [TP-020n]
% of control [3]: 93%

SMILES: N#Cc1cccc(-c2c[nH]c3ncnc(N4CCOCC4)c23)c1
% of inhibition [4]: -13%

SMILES: COCC(=O)NC/C=C/c1ccc2ncnc(Nc3ccc(Oc4ccc(C)nc4)c(C)c3)c2c1 [CP-724714]
% of control [5]: 80%

SMILES: Cc1cc([C@@H](C)Nc2ccccc2C(=O)O)c2nc(N3CCOCC3)cc(=O)n2c1 [AZD-6482]
% of control [6]: 79%
% of control [7]: 54%

% of inhibition [8]: 3.66%
SMILES: CC[C@@H]1[C@H](F)C(=O)N[C@@H]1COc1nccc2cc(C(N)=O)c(OC)cc12 [ZIMLOVISERTIB]

SMILES: COc1cc(N(C)c2ccnc3ccc(C(F)(F)F)cc23)cc(OC)c1OC
% binding [9]: 75%
